According to patent US10993955B2, “Medicament for use in treating diabetes” (Shandong Zhonghai Pharmaceutical CO. LTD, priority 2016, dated 2021):

Test system: diabetic patients
Assay: Therapeutic effect in diabetic patients (blood glucose, urine glucose), 3 months treatment
Format: in vivo, human
Excerpt: The medicament hereof is used to compare the therapeutic effects in diabetic patients, and the details are as follows:
The applicant has divided 100 diabetic patients into treatment group. Among these patients, 6 are aged 16 to 30 years old, 14 are 31 to 45 years old, 28 are 46 to 60 years old, and 52 are 61 to 75 years old.
During the treatment, the patients in the treatment group discontinue the administration of any other medicaments, and only take the medicament described in Embodiment 3 hereof, once in the morning and evening, 2 g each time; the patients in the control group take D-860 Rastinon according to the package insert, and the patients in treatment group and the control group of the invention were treated and observed for 3 months, and the results are as follows: […]

[1] = diabetic patients aged 16-30, after 3 months treatment
[2] = diabetic patients aged 31-45, after 3 months treatment
[3] = diabetic patients aged 46-60, after 3 months treatment
[4] = diabetic patients aged 61-75, after 3 months treatment

CCCCNC(=O)NS(=O)(=O)c1ccc(C)cc1 [D-860 Rastinon]
Blood sugar [1]: 6.2 mmol/L | Glucose in urine [1]: 1.0 mmol/L | Blood sugar [2]: 6.5 to 6.7 mmol/L | Glucose in urine [2]: 28.6 to 32.2 mmol/L | Blood sugar [3]: 7.3 to 7.6 mmol/L | Glucose in urine [3]: 31 to 35 mmol/L | Blood sugar [4]: 9.0 to 9.2 mmol/L | Glucose in urine [4]: 35 to 58 mmol/L
